Experimental data: patent US7671054B1, “Reverse-turn mimetics and method relating thereto” (Choongwae Pharma Corporation, priority 2001, dated 2010)
Like-named read-outs stand apart in the source and are kept apart here.

Tests used:
Type in all cases: cell-based
TCF4 = test: Effect on TCF4 expression (Table 9)
Description: (§1) The effects of various compounds having general formula (I) on survivin and TCF4 expression were characterized.

Survivin = test: Effect on survivin expression (Table 9)
Description: as §1

SW480 cells = test: Growth inhibition assay (MTS); settings: Homo sapiens, Table 5, SW480 cells, 48 hours treatment, MTS, read-out: Growth Inhibition (GI50, uM) SW480
Summary of the method: (§2)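 Cells seeded at 10^4 per well, grown 24 h at 37° C, then exposed to compound at various concentrations for 48 hours. MTS added for 2 h; absorbance at 490 nm gave viability, with cytotoxicity calculated per concentration against pre-treatment reading.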

HCT116 cells = test: Growth inhibition assay (MTS); settings: Homo sapiens, Table 5, HCT116 cells, 48 hours treatment, MTS, read-out: Growth Inhibition (GI50, uM) HCT116
Summary of the method: as §2

[1] = tested on: TCF4/β-catenin transcription (TOPFlash) in SW480 cells; test: Reporter gene assay (TOPFlash luciferase); settings: Homo sapiens, SW480, Table 4; Reporter gene assay as described in Example 6; read-out: IC50
Summary of the method: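 SW480 cells transiently co-transfected with TOPFlash and pRL-null (4:1 µg) using Superfect, then reseeded at 3×10^4 cells/well and incubated overnight at 37 °C. Compound treatment lasted 24 h before luciferase read-out.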

Row | Structure (SMILES) | IC50 (TCF4) [µM] | GI50 (SW480 cells; SW480, 48 h) [µM] | GI50 (HCT116 cells; HCT-116, 48 h) [µM] | inhibition at 5 µM (Survivin) [%] | inhibition at 25 µM (Survivin) [%] | also measured
1 | CN(C)c1cc(F)c(F)cc1CN1C[C@@H]2N(C(=O)CN(C)N2C(=O)NCc2ccccc2)[C@@H](Cc2ccc(O)cc2)C1=O | 1.4 ± 0.2 |  |  | 9 | 91 | 
2 | CN1CC(=O)N2[C@@H](Cc3ccc(O)cc3)C(=O)N(Cc3c(Cl)cc(Cl)c4cccnc34)C[C@@]2(C)N1C(=O)NCc1ccccc1 | 11.2 ± 1.5 |  |  | 6 | 58 | 
3 | CN1CC(=O)N2C(Cc3ccc(O)cc3)C(=O)N(Cc3ccc(F)cc3F)CC2N1C(=O)NCc1ccccc1 (stereo not drawn) | ~6.3 |  |  | 51 | 93 | 
4 | CN1CC(=O)N2[C@@H](CN(Cc3ccc(F)cc3C(F)(F)F)C(=O)[C@@H]2Cc2ccc(O)cc2)N1C(=O)NCc1ccccc1 | 1.3 ± 0.1 |  |  | 0 | 80 | 
5 | CN1CC(=O)N2C(CN(Cc3cc(F)c(F)c(F)c3)C(=O)[C@@H]2Cc2ccc(O)cc2)N1C(=O)NCc1ccccc1 (stereo in doubt) [Compound 16] |  | 4.18 | 2.95 |  |  | IC50 [1]: 3.8 µM
6 | CN1CC(=O)N2C(Cc3ccc(O)cc3)C(=O)N(Cc3cccc4cccnc34)CC2N1C(=O)NCc1ccccc1 (stereo not drawn) | ~2.2 |  |  | 97 | 100 | 
7 | Cc1cccc(N(C)C)c1CN1C[C@@H]2N(C(=O)CN(C)N2C(=O)NCc2ccccc2)[C@@H](Cc2ccc(O)cc2)C1=O |  |  |  | 8 | 4 | 
8 | CN1CC(=O)N2[C@@H](CN(Cc3c(Cl)ccc4cccnc34)C(=O)[C@@H]2Cc2ccc(O)cc2)N1C(=O)NCc1ccccc1 | 50.4 ± 7 |  |  | 0 | 32 | 
9 | CN1CC(=O)N2[C@@H](Cc3ccc(O)cc3)C(=O)N(Cc3cccc4ccccc34)C[C@@]2(C)N1C(=O)NCc1ccccc1 | ~2 |  |  | 100 | 99 | 
10 | CN1CC(=O)N2[C@@H](Cc3ccc(O)cc3)C(=O)N(Cc3ccc4ccccc4c3)C[C@@H]2N1C(=O)NCc1ccccc1 [Compound 9] |  | 2.36 | 1.92 |  |  | 
11 | CN1CC(=O)N2[C@@H](Cc3ccc(O)cc3)C(=O)N(Cc3cccc(N4CCCC4=O)c3)C[C@@H]2N1C(=O)NCc1ccccc1 [Compound 121] |  | 8.2 ± 0.5 | 13.1 ± 0.6 |  |  | 
12 | CCN1CC(=O)N2[C@@H](Cc3ccc(O)cc3)C(=O)N(Cc3ccc(Cl)c(N(C)C)c3)C[C@@H]2N1C(=O)NCc1ccccc1 [Compound 97] |  | 7.1 ± 1 | 5.2 ± 0.5 |  |  | 
13 | C=CCN1CC(=O)N2[C@@H](Cc3ccc(OP(=O)(O)O)cc3)C(=O)N(Cc3cccc4c3OCCN4C)C[C@@H]2N1C(=O)NCc1ccccc1 [Compound 139] |  |  |  |  |  | GI50 (SW480 cells): 1.2 ± 0.1 µM; GI50 (HCT116 cells; HCT-116): 1 ± 0.2 µM
14 | CN1CC(=O)N2[C@@H](Cc3ccc(O)cc3)C(=O)N(Cc3cccc(N4CCOCC4)c3)C[C@@H]2N1C(=O)NCc1ccccc1 [Compound 90] |  | 12.6 ± 0.9 | 14.7 ± 1 |  |  | 
15 | C=CCN1CC(=O)N2[C@@H](Cc3ccc(O)cc3)C(=O)N(Cc3cccc(N(C)C)c3)C[C@@H]2N1C(=O)NCc1ccccc1 [Compound 162] |  | 1 ± 0.3 | 1.3 ± 0.7 |  |  | 
16 | CCCN(C)c1cccc(CN2C[C@H]3N(C(=O)CN(C)N3C(=O)NCc3ccccc3)[C@@H](Cc3ccc(O)cc3)C2=O)c1 [Compound 34] |  | 13.8 ± 2.4 | 6.4 ± 1.3 |  |  | 
17 | C=CCN1CC(=O)N2[C@@H](Cc3ccc(O)cc3)C(=O)N(Cc3cccc4sc(Cl)nc34)C[C@@H]2N1C(=O)NCc1ccccc1 [Compound 187] |  | 1 ± 0.1 | 1 ± 0.1 |  |  | 
18 | CN1CC(=O)N2[C@@H](Cc3ccc(O)cc3)C(=O)N(Cc3cccc4cccnc34)C[C@@H]2N1C(=O)NCc1ccccc1 [Compound 8] |  | < 0.3 | < 0.3 |  |  | 
19 | CN1CC(=O)N2[C@@H](Cc3ccc(O)cc3)C(=O)N(Cc3cccc4cnn(CCN5CCOCC5)c34)C[C@@H]2N1C(=O)NCc1ccccc1 [Compound 69] |  | 17.9 ± 3.1 | 9.7 ± 1 |  |  | 
20 | C=CCN1CC(=O)N2[C@@H](Cc3ccc(O)cc3)C(=O)N([C@H](C)c3ccccc3)C[C@@H]2N1C(=O)NCc1ccccc1 [Compound 153] |  | 12.8 ± 1.6 | 14.3 ± 7 |  |  | 
21 | C=CCN1CC(=O)N2[C@@H](CC3(O)C=CC(=O)C=C3)C(=O)N(Cc3ccc(F)cc3F)C[C@@H]2N1C(=O)NCc1ccccc1 [Compound 151] |  | 11.2 ± 1.3 | 8.6 ± 0.9 |  |  | 
22 | [2H]c1cc(O)cc([2H])c1C[C@H]1C(=O)N(Cc2cccc3ccccc23)C[C@H]2N1C(=O)CN(C)N2C(=O)NCc1ccccc1 [Compound 142] |  | 3.2 ± 0.3 | 3.3 ± 0.4 |  |  | 

The next lines start with results.

Row | IC50 (TCF4) [µM] | GI50 (SW480 cells; SW480, 48 h) [µM] | GI50 (HCT116 cells; HCT-116, 48 h) [µM] | Structure (SMILES) | inhibition at 5 µM (Survivin) [%] | inhibition at 25 µM (Survivin) [%] | also measured
23 | 6.3 ± 0.431 |  |  | CC(C)N(C)c1cccc(CN2C[C@@H]3N(C(=O)CN(C)N3C(=O)NCc3ccccc3)[C@@H](Cc3ccc(O)cc3)C2=O)c1 | 5 | 91 | 
24 | 3.9 ± 0.55 |  |  | Cc1c(CN2C[C@@H]3N(C(=O)CN(C)N3C(=O)NCc3ccccc3)[C@@H](Cc3ccc(O)cc3)C2=O)cccc1N(C)C | 48 | 96 | 
25 | 10.9 ± 1.3 |  |  | Cc1cccc(CN2C[C@@H]3N(C(=O)CN(C)N3C(=O)NCc3ccccc3)[C@@H](Cc3ccc(O)cc3)C2=O)c1N(C)C | 0 | 68 | 
26 | 5.2 ± 0.7 |  |  | CN(C)c1ccccc1CN1C[C@@H]2N(C(=O)CN(C)N2C(=O)NCc2ccccc2)[C@@H](Cc2ccc(O)cc2)C1=O | 41 | 92 | 
27 | 2.2 ± 0.2 |  |  | CN(C)c1ccc(Cl)cc1CN1C[C@@H]2N(C(=O)CN(C)N2C(=O)NCc2ccccc2)[C@@H](Cc2ccc(O)cc2)C1=O | 0 | 93 | 
28 | 4.4 ± 0.6 |  |  | CCN(C)c1cccc(CN2C[C@@H]3N(C(=O)CN(C)N3C(=O)NCc3ccccc3)[C@@H](Cc3ccc(O)cc3)C2=O)c1 | 46 | 96 | 
29 | 4.8 ± 0.4 |  |  | Cc1cc(C)c(N(C)C)c(CN2C[C@@H]3N(C(=O)CN(C)N3C(=O)NCc3ccccc3)[C@@H](Cc3ccc(O)cc3)C2=O)c1 | 0 | 84 | 
30 | 10.7 ± 1.7 |  |  | CC(C)N(C)c1ccccc1CN1C[C@@H]2N(C(=O)CN(C)N2C(=O)NCc2ccccc2)[C@@H](Cc2ccc(O)cc2)C1=O | 27 | 98 | 
31 | 1.7 ± 0.2 |  |  | CN(C)c1cc(F)ccc1CN1C[C@@H]2N(C(=O)CN(C)N2C(=O)NCc2ccccc2)[C@@H](Cc2ccc(O)cc2)C1=O | 79 | 81 | 
32 | 5.9 ± 0.5 |  |  | COc1cccc(CN2C[C@@H]3N(C(=O)CN(C)N3C(=O)NCc3ccccc3)[C@@H](Cc3ccc(O)cc3)C2=O)c1N(C)C | 9 | 92 | 
33 | 10.7 ± 1.9 |  |  | Cc1ccc(N(C)C(C)C)c(CN2C[C@@H]3N(C(=O)CN(C)N3C(=O)NCc3ccccc3)[C@@H](Cc3ccc(O)cc3)C2=O)c1 | 14 | 99 | 
34 | 18.2 ± 2.4 |  |  | CN(C)c1cccc(F)c1CN1C[C@@H]2N(C(=O)CN(C)N2C(=O)NCc2ccccc2)[C@@H](Cc2ccc(O)cc2)C1=O | 0 | 6 | 
35 | 5.2 ± 1.1 |  |  | CN(C)c1c(CN2C[C@@H]3N(C(=O)CN(C)N3C(=O)NCc3ccccc3)[C@@H](Cc3ccc(O)cc3)C2=O)cccc1C(F)(F)F | 0 | 91 | 
36 | 7.3 ± 1.1 |  |  | CN(C)c1c(Cl)cccc1CN1C[C@@H]2N(C(=O)CN(C)N2C(=O)NCc2ccccc2)[C@@H](Cc2ccc(O)cc2)C1=O | 0 | 21 | 
37 | 2.8 ± 0.4 |  |  | CN1CC(=O)N2[C@@H](CN(Cc3cccc4cnn(C)c34)C(=O)[C@@H]2Cc2ccc(O)cc2)N1C(=O)NCc1ccccc1 | 82 | 97 | 
38 | 2.6 ± 0.4 |  |  | Cc1ccc(N(C)C)c(CN2C[C@@H]3N(C(=O)CN(C)N3C(=O)NCc3ccccc3)[C@@H](Cc3ccc(O)cc3)C2=O)c1 | 0 | 94 | 
39 | 27.1 ± 4.6 |  |  | CC(C)N(C)c1ccc(Cl)c(CN2C[C@@H]3N(C(=O)CN(C)N3C(=O)NCc3ccccc3)[C@@H](Cc3ccc(O)cc3)C2=O)c1 | 25 | 44 | 
40 | 4.6 ± 0.7 |  |  | CN1CC(=O)N2[C@@H](CN(Cc3cccc4cn[nH]c34)C(=O)[C@@H]2Cc2ccc(O)cc2)N1C(=O)NCc1ccccc1 | 80 | 97 | 
41 |  | 24.5 | 1.81 | CCN(C)c1cccc(CN2C[C@H]3N(C(=O)CN(C)N3C(=O)NCc3ccccc3)[C@@H](Cc3ccc(O)cc3)C2=O)c1 [Compound 25] |  |  | 
42 |  | 1.68 | 1.34 | CN1CC(=O)N2C(CN(Cc3ccccc3Cl)C(=O)[C@@H]2Cc2ccc(O)cc2)N1C(=O)NCc1ccccc1 (stereo partly drawn) [Compound 15] |  |  | 
43 |  | 4.63 | 3.52 | CN1CC(=O)N2C(CN(Cc3ccc(Cl)cc3Cl)C(=O)[C@@H]2Cc2ccc(O)cc2)N1C(=O)NCc1ccccc1 (stereo partly drawn) [Compound 18] |  |  | 
44 |  | 5.25 | 1.67 | COc1cccc(CN2CC3N(C(=O)CN(C)N3C(=O)NCc3ccccc3)[C@@H](Cc3ccc(O)cc3)C2=O)c1OC (stereo partly drawn) [Compound 21] |  |  | 
